In patent publication US20240360145A1, “PYRIMIDINE-2,4-DIAMINE DERIVATIVES AS WELL AS PREPARATION METHOD THEREFOR AND USE THEREOF” (LISEN THERAPEUTICS, INC., priority 2022, published 2024):

Legend:
[1] = test system: primary cells from pleural effusion of patients with small cell lung cancer; experiment: Cell viability IC50 (CCK-8), summary over primary cells from pleural effusion of patients with small cell lung cancer; assay type: cell-based; settings: Homo sapiens; range over primary cells of patients with small cell lung cancer (Table 4)
Procedure: (§1) (1) Primary cells from lung cancer pleural effusion within 5 generations were cultured to the logarithmic growth phase. When the confluence reached about 90%, the cells were digested with 0.25% trypsin, and complete culture medium was added to collect the cells. After centrifugation at room temperature, the supernatant was discarded, and the cell precipitate was resuspended with fresh complete culture medium. After counting, the cells were placed at room temperature for later use. The cells were inoculated into a 384-well plate at a density of 2000 cells/well with a volume of 40 μl/well. The wells at the outermost circle of the plate were not inoculated with cells, and instead, added with sterile water to reduce evaporation of the culture medium.
(2) After overnight culture of the cells, the medium was discarded, and a fresh medium containing different concentrations of compounds was added at 200 μl/well. The dilution method of the compound was as follows: first the compound with the highest concentration of 10 μM was prepared, and then the compound was diluted for 3 times in sequence. […] At the same time, a blank control group was set up, in which only an equal volume of culture medium was added without adding cells. […]
(4) The light absorbance value at 450 nm was read using a microplate reader, and the IC50 was calculated according to the absorbance value. […]

[2] = test system: NCI-H446 cells; experiment: Cell viability IC50 (CCK-8), small cell lung cancer cell line H446; assay type: cell-based; settings: Homo sapiens, NCI-H446; H446, CCK-8
Procedure: (§2) Small cell lung cancer cell lines DMS114, NCI-H1688, NCI-H82, NCI-H146, and NCI-H446 cells were cultured in RPMI-1640 medium containing 10% fetal bovine serum and 1% penicillin-streptomycin. All the cells were cultured in a constant temperature incubator containing 5% CO2 at 37° C.
(§3) Small cell lung cancer is a highly heterogeneous malignant tumor, and its clinical treatment is mainly based on traditional chemotherapy (mainly platinum medicaments and etoposide). In order to study the anti-tumor activity of the compounds of the present disclosure in small cell lung cancer, the CCK-8 method was used to investigate the cell viability IC50 of compound 8 for five small cell lung cancer cell lines.

[3] = test system: PE052 primary cells; experiment: Cell viability IC50 (CCK-8), primary cells PE052 from small cell lung cancer pleural effusion; assay type: cell-based; settings: PE052, CCK-8
Procedure: (1) The pleural effusion was poured into a 15 mL or 50 mL of sterilized centrifuge tube for centrifugation. Centrifugation conditions: 800 to 1000 rpm, 5 min.
(2) The precipitate was resuspended and washed for 2 to 3 times with PBS.
(3) The cell precipitate was resuspended with complete culture medium (α-MEM medium containing 10% fetal bovine serum and 2% penicillin-streptomycin), and the flocculent matter in the pleural effusion was removed using a sterilized cell sieve.
(4) The red blood cells in the pleural effusion were removed with lymphocyte separation fluid, and the tumor cells and lymphocyte components were collected. The number of tumor cells was observed under a microscope, and the cells were inoculated.
(5) After 24 hours, the supernatant was discarded, and fresh culture medium was added for further culture.
(6) The cell growth status was observed, and it was determined based on the cell status whether the medium was required to be continuously changed to remove blood cells. When the cells grew to a density of 80% to 90%, the cells were preserved.
as §1, with “When the confluence reached about 90%, the cells were digested with 0.25% trypsin, and complete culture medium was added to collect the cells.” left out
(2) After overnight culture of the cells, the medium was discarded, and a fresh medium containing different concentrations of compounds was added at 200 μl/well. The dilution method of the compound was as follows: first the compound with the highest concentration of 10 μM was prepared, and then the compound was diluted for 3 times in sequence. […] At the same time, a blank control group was set up, in which only an equal volume of culture medium was added without adding cells. Five replicate wells were set up for each group. The cells were placed in the incubator for further culture.
(3) After 72 hours, 8 μl of CCK-8 solution, which was double-diluted with 10 mM PBS, was added to each well, and the cells were shaken and placed in an incubator at 37° C. for further culture for 2 hours.
(4) The light absorbance value at 450 nm was read using a microplate reader, and the IC50 was calculated according to the absorbance value. The calculation method was the same as above.
(1) Sample information: PE039, PE052, and PE062 were all primary cell samples from pleural effusion of patients with small cell lung cancer, and LT015 was a primary cell sample from bronchoscopic biopsy of a patient with small cell lung cancer.
(2) CCK-8 detection was used to detect the IC50 values of different medicaments (compounds).

[4] = test system: small cell lung cancer cell line H446 cells; experiment: In vivo antitumor effect in mice bearing small cell lung cancer cell line H446 cells (CDX model)
Procedure: H446 cells in the logarithmic growth phase were suspended in PBS solution, and then inoculated subcutaneously in the right forelimb of nude mice. The cell density was about 2×10^8 cells/mL, and each mouse was inoculated with 0.1 mL of the cell suspension, for a total of 80 mice. When the subcutaneous tumor grew to range from 50 mm^3 to 100 mm^3, 40 tumor-bearing mice were randomly divided into groups and numbered, and drug administration began.
(1) Vehicle blank control group: 5% DMSO+20% PEG 300+75% saline (normal saline);
The cycle repeated twice, and no medication for the final 6 days.
All tumor-bearing mice were killed after 20 days.

[5] = test system: KYSE-70 (esophageal cancer); experiment: Cell viability IC50 (CellTiter-Glo), KYSE-70; assay type: cell-based; settings: Homo sapiens, KYSE-70, 72 hours
Procedure: (§4) The cancer cell lines were cultured to the logarithmic growth phase according to conventional culture methods, and the cells were inoculated into a 384-well plate at a density of 2,000 cells/well in a volume of 40 μl/well. The concentrations of added compounds were: […], 1.67 μM, 0.56 μM, 0.19 μM, 0.062 μM, 0.021 μM, 0.0069 μM, 0.0023 μM, 0.00076 μM, and 0 μM. After 72 hours, cell viability was detected using the CellTiter-Glo™ Detection Kit.

[6] = test system: HCT116 (colon cancer); experiment: Cell viability IC50 (CellTiter-Glo), HCT116; assay type: cell-based; settings: Homo sapiens, HCT-116, HCT116, 72 hours
Procedure: as §4

[7] = test system: SW620 (colon cancer); experiment: Cell viability IC50 (CellTiter-Glo), SW620; assay type: cell-based; settings: Homo sapiens, SW-620, SW620, 72 hours
Procedure: as §4

[8] = test system: NCI-H146 cells; experiment: Cell viability IC50 (CCK-8), small cell lung cancer cell line H146; assay type: cell-based; settings: Homo sapiens, NCI-H146; H146, CCK-8
Procedure: as §2, §3

[9] = test system: NCI-H82 cells; experiment: Cell viability IC50 (CCK-8), small cell lung cancer cell line H82; assay type: cell-based; settings: Homo sapiens, NCI-H82; H82, CCK-8
Procedure: as §2, §3

Structure (SMILES): CN1CC2CCC(C1)N2Cc1ccc(Nc2ncc(Cl)c(Nc3ccccc3S(=O)(=O)N(C)C)n2)cc1 [Compound 8, 2-((5-chloro-2-((4-((3-methyl-3,8-diazabicyclo[3.2.1]octan-8-yl)methyl)phenyl)amino)pyrimidin-4-yl)amino)-N,N-dimethylbenzenesulfonamide]
- IC50 [1]: 2.7 to 59.9 nM
- IC50 [2]: 7.58 nM
- IC50 [3]: 59.9 nM
- toxicity ([4]; H446 CDX nude mice, 15 mg/kg, judged from body weight): not significant
- inhibitory effect on tumor volume growth compared with blank control (FIG. 1) ([4]; H446 CDX nude mice, intraperitoneal injection, 20 days): significantly inhibited the growth of tumor volume
- animals survived ([4]; H446 CDX nude mice, intraperitoneal injection, 20 days, compound 8 and TP-0903 15 mg/kg once a day for 13 days, Cisplatin 2.5 mg/kg + Etoposide 4 mg/kg cycles): 11 out of 12
- body weight changes of nude mice (FIG. 2) ([4]; during the drug administration period, recovered rapidly after drug withdrawal): slight decrease in body weight
- IC50 [5]: 122 nM
- IC50 [6]: 9 nM
- IC50 [7]: 101 nM
- IC50 [8]: 9.92 nM
- IC50 [9]: 5.15 nM
